According to ChEMBL document CHEMBL1201862, “PubChem BioAssay data set” (2004):
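Five compound concentrations were applied to cells in 96-well plates for 48 hours; endpoints were derived by simple linear interpolation of the resulting dose-response curve. GI50 marks 50% less growth.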 Calls of active or inactive are those of the source. Rule as the data show it: active = GI50 up to about 1.1 µM and inactive = higher.

Legend:
Assay in all cases: NCI-60 cell line screen, 48 h
PC-3 = tested on: PC-3
SF-295 = tested on: SF-295
COLO 205 = tested on: COLO 205
OVCAR-8 = tested on: OVCAR-8
SK-MEL-5 = tested on: SK-MEL-5
786-0 = tested on: 786-0
SF-268 = tested on: SF-268
SR = tested on: SR
HCT-15 = tested on: HCT-15
M14 = tested on: M14
SK-MEL-2 = tested on: SK-MEL-2
K562 = tested on: K562
NCI/ADR-RES = tested on: NCI/ADR-RES
UACC-257 = tested on: UACC-257
SK-MEL-28 = tested on: SK-MEL-28
SW-620 = tested on: SW-620
DU-145 = tested on: DU-145
OVCAR-5 = tested on: OVCAR-5

SMILES	GI50 (PC-3)	GI50 (SF-295)	GI50 (COLO 205)	GI50 (OVCAR-8)	GI50 (SK-MEL-5)	GI50 (786-0)	GI50 (SF-268)	GI50 (SR)	GI50 (HCT-15) [µM]	GI50 (M14)	GI50 (SK-MEL-2)	GI50 (K562)	GI50 (NCI/ADR-RES)	GI50 (UACC-257)	GI50 (SK-MEL-28)	GI50 (SW-620)	GI50 (DU-145)	GI50 (OVCAR-5)
COc1ccc(C(=O)/C=C/c2ccc(OCCSCCCCCCCCCCSCCOc3ccc(/C=C/C(=O)c4ccc(OC)cc4)cc3)cc2)cc1	> 100 µM (inactive)	> 100 µM (inactive)	> 100 µM (inactive)	> 100 µM (inactive)	> 100 µM (inactive)	> 100 µM (inactive)	> 100 µM (inactive)	> 100 µM (inactive)	> 100	> 100 µM (inactive)	> 100 µM (inactive)	> 100 µM (inactive)	> 100 µM (inactive)	> 100 µM (inactive)	> 100 µM (inactive)	> 100 µM (inactive)	> 100 µM (inactive)	
COc1cc(/C=C/C=C2\CCC/C(=C\C=C\c3ccc(O)c(OC)c3)C2=O)ccc1O	6.58 µM (inactive)	4.74 µM (inactive)	18.6 µM (inactive)	12.6 µM (inactive)	10.3 µM (inactive)	10 µM (inactive)	5.53 µM (inactive)	1.69 µM (inactive)	13.6	18.2 µM (inactive)	21.2 µM (inactive)	3.06 µM (inactive)	12.2 µM (inactive)	12.1 µM (inactive)	12.6 µM (inactive)	6.84 µM (inactive)	14.7 µM (inactive)	22 µM (inactive)
COc1cc(Nc2ccc3c(c2)CCC3)nc(OC)n1	27.1 µM (inactive)	29.6 µM (inactive)	37.3 µM (inactive)	34.8 µM (inactive)	23.9 µM (inactive)	37.2 µM (inactive)	23.9 µM (inactive)	20.5 µM (inactive)	27.8	43.3 µM (inactive)	33 µM (inactive)		23.1 µM (inactive)	44.4 µM (inactive)	> 100 µM (inactive)	> 100 µM (inactive)	53 µM (inactive)	78 µM (inactive)
Cc1ccc2c(c1)C(=O)C(Cc1ccccc1C(=O)O)C2 (stereo not drawn)	> 100 µM (inactive)	> 100 µM (inactive)	> 100 µM (inactive)	> 100 µM (inactive)	> 100 µM (inactive)	> 100 µM (inactive)	> 100 µM (inactive)	> 100 µM (inactive)	> 100	> 100 µM (inactive)	> 100 µM (inactive)	> 100 µM (inactive)	> 100 µM (inactive)	> 100 µM (inactive)	> 100 µM (inactive)	> 100 µM (inactive)	> 100 µM (inactive)	> 100 µM (inactive)
COc1ccc(/C=C2\CN(C)C/C(=C\c3ccc(OC)c(OC)c3OC)C2=O)c(OC)c1OC	0.231 µM (active)	0.272 µM (active)	0.238 µM (active)	0.07 µM (active)	0.259 µM (active)	0.0887 µM (active)	0.164 µM (active)	0.0658 µM (active)	0.369	0.073 µM (active)	0.363 µM (active)	0.0192 µM (active)	0.145 µM (active)	0.249 µM (active)	0.147 µM (active)	0.155 µM (active)	0.333 µM (active)	0.232 µM (active)
CN(C)CCn1nc(N)c2nc3cc(C(F)(F)F)ccc3nc21	> 100 µM (inactive)	> 100 µM (inactive)	27.7 µM (inactive)	88.3 µM (inactive)	> 100 µM (inactive)	> 100 µM (inactive)	94.6 µM (inactive)	> 100 µM (inactive)	67.3	> 100 µM (inactive)	> 100 µM (inactive)	> 100 µM (inactive)	> 100 µM (inactive)	> 100 µM (inactive)	> 100 µM (inactive)	81.1 µM (inactive)	54.8 µM (inactive)	> 100 µM (inactive)
O=C1NC(N2CCOCC2)=N/C1=C\c1ccc(Cl)cc1	> 100 µM (inactive)	> 100 µM (inactive)	> 100 µM (inactive)	> 100 µM (inactive)		> 100 µM (inactive)	> 100 µM (inactive)	> 100 µM (inactive)	> 100	> 100 µM (inactive)	> 100 µM (inactive)		> 100 µM (inactive)	> 100 µM (inactive)	> 100 µM (inactive)	> 100 µM (inactive)	> 100 µM (inactive)	> 100 µM (inactive)
Oc1c(CN2CCN(c3ccccc3)CC2)cc(Br)c2cccnc12	4.22 µM (inactive)	1.21 µM (inactive)	29.6 µM (inactive)	0.721 µM (active)	0.805 µM (active)	1.4 µM (inactive)	0.893 µM (active)	0.284 µM (active)	0.135	1.14 µM (inactive)	2.17 µM (inactive)		0.206 µM (active)	2.96 µM (inactive)	3.97 µM (inactive)	1.4 µM (inactive)	1.63 µM (inactive)	4.07 µM (inactive)
Cn1c2ccccc2n2c3ncccc3c(=S)c(C#N)c12	> 100 µM (inactive)	> 100 µM (inactive)	> 100 µM (inactive)	> 100 µM (inactive)	> 100 µM (inactive)	75.7 µM (inactive)	> 100 µM (inactive)	71.4 µM (inactive)	> 100	> 100 µM (inactive)	> 100 µM (inactive)	> 100 µM (inactive)	> 100 µM (inactive)		> 100 µM (inactive)	> 100 µM (inactive)	> 100 µM (inactive)	> 100 µM (inactive)
COc1ccc(/N=C2\C(=N/c3ccc(OC)cc3)N(S(=O)(=O)c3ccccc3)C(=S)N2c2ccc(OC)cc2)cc1	> 100 µM (inactive)	> 100 µM (inactive)	> 100 µM (inactive)	> 100 µM (inactive)	86.5 µM (inactive)	> 100 µM (inactive)	> 100 µM (inactive)	> 100 µM (inactive)	> 100	25.1 µM (inactive)	> 100 µM (inactive)	> 100 µM (inactive)	> 100 µM (inactive)		> 100 µM (inactive)	> 100 µM (inactive)	> 100 µM (inactive)	> 100 µM (inactive)
COc1ccc(C(=O)C(CC2C(=O)CC(C)(C)C(C(=O)C(=O)Nc3c(C)cccc3C)C2=O)c2ccc(OC)cc2)cc1 (stereo not drawn)	> 100 µM (inactive)	> 100 µM (inactive)	> 100 µM (inactive)	> 100 µM (inactive)	> 100 µM (inactive)	> 100 µM (inactive)	> 100 µM (inactive)	22.9 µM (inactive)	> 100	> 100 µM (inactive)	> 100 µM (inactive)		> 100 µM (inactive)	> 100 µM (inactive)	> 100 µM (inactive)	> 100 µM (inactive)	> 100 µM (inactive)	> 100 µM (inactive)
COC(=O)[C@H](C)N1C(=O)N[C@@H](C(C)C)C1=O	> 100 µM (inactive)	> 100 µM (inactive)	> 100 µM (inactive)	> 100 µM (inactive)	> 100 µM (inactive)	> 100 µM (inactive)		> 100 µM (inactive)	> 100	> 100 µM (inactive)	> 100 µM (inactive)	> 100 µM (inactive)	> 100 µM (inactive)	> 100 µM (inactive)	> 100 µM (inactive)	> 100 µM (inactive)	> 100 µM (inactive)	> 100 µM (inactive)
Clc1ccc(/C=C/c2nc(-c3ccccc3)cn3c2nc2ccccc23)cc1Cl	62.4 µM (inactive)		> 100 µM (inactive)		50.2 µM (inactive)	37.5 µM (inactive)	59 µM (inactive)	33.7 µM (inactive)	34.3	56.4 µM (inactive)	> 100 µM (inactive)	43.6 µM (inactive)	55.6 µM (inactive)	> 100 µM (inactive)	65.8 µM (inactive)	41.6 µM (inactive)	> 100 µM (inactive)	> 100 µM (inactive)
CCn1c2ccc(O)c(C(=O)OC)c2c2cc3ccccc3c(O)c21	20.8 µM (inactive)	27.5 µM (inactive)	15.3 µM (inactive)	17.4 µM (inactive)	14.2 µM (inactive)	12.3 µM (inactive)	16.3 µM (inactive)	17.4 µM (inactive)	15.3	20.7 µM (inactive)	13.7 µM (inactive)	27.9 µM (inactive)	19.8 µM (inactive)	31.6 µM (inactive)	26.2 µM (inactive)		14.5 µM (inactive)	32.3 µM (inactive)
COC(O)C(=O)c1c2c(cc3c1CC1(Cc4cc5c(cc4C1)CCC5)C3)CCC2 (stereo not drawn)	16.7 µM (inactive)	19.7 µM (inactive)		18.3 µM (inactive)	17.3 µM (inactive)	14 µM (inactive)	20.5 µM (inactive)	3.99 µM (inactive)	20.7	16.6 µM (inactive)	16 µM (inactive)	13.2 µM (inactive)	17.3 µM (inactive)	18.7 µM (inactive)	20 µM (inactive)	16.2 µM (inactive)	19.5 µM (inactive)	18.2 µM (inactive)
O=C(OCCC12CC3CC(CC(C3)C1)C2)c1ccc(NCc2cc(O)ccc2O)cc1	0.573 µM (active)	2.02 µM (inactive)	0.34 µM (active)		1.12 µM (inactive)	1.28 µM (inactive)	2.49 µM (inactive)	0.404 µM (active)	0.611	1.24 µM (inactive)	1.24 µM (inactive)	1.66 µM (inactive)	0.687 µM (active)	0.604 µM (active)	0.849 µM (active)	1.63 µM (inactive)	3.3 µM (inactive)	
